According to patent publication US20180296630A1, “METHODS AND COMPOSITIONS FOR PREVENTING OR TREATING OPHTHALMIC CONDITIONS” (Stealth BioTherapeutics Corp, priority 2012, published 2018):

Assays:
iHTM cells = test: ROS production, sustained oxidative injury by H2O2, iHTM cells; assay type: cell-based, human; conditions: then 200 μM H2O2 24 h
Description: The effects of D-Arg-2′,6′-Dmt-Lys-Phe-NH2 on sustained oxidative injury of GTM and HTM cells was examined. Cells were pre-treated with 10^−6, 10^−7, 10^−8M of D-Arg-2′,6′-Dmt-Lys-Phe-NH2 for 1 h, and then incubated with 200 μM H2O2 for 24 h to investigate the protective effect of D-Arg-2′,6′-Dmt-Lys-Phe-NH2 in sustained oxidative stress.

STZ diabetic rats = test: Lens opacity (cataract) in STZ rat model; assay type: in vivo, Sprague-Dawley rat; conditions: 10 mg (Table 11: 10 mg/kg s.c.)
Description: A rat model of diabetes was established by combination of 6-week HFD and low dose of STZ (30 mg/kg) injection or a single high dose of STZ (65 mg/kg) in SD rats. See generally, K. Srinivasan, B. Viswanad, Lydia Asrat, C. L. Kaul and P. Ramarao, Combination of high-fat diet-fed and low-dose streptozotocin-treated rat: A model for type 2 diabetes and pharmacological screening, Pharmacological Research, 52(4): 313-320, 2005. Rats of the same batch fed with normal chow (NRC) were used as a control.

661W cells = test: tBHP-induced death of 661W cone cells; assay type: cell-based, mouse; conditions: different doses
Description: A cone cell specific line 661W was derived from a mouse retinal tumor. Methods useful in the present studies of 661W cells have been described previously. See generally, Gearóid Tuohy, Sophia Millington-Ward, Paul F. Kenna, Peter Humphries and G. Jane Farrar, Sensitivity of Photoreceptor-Derived Cell Line (661W) to Baculoviral p35, Z-VAD.FMK, and Fas-Associated Death Domain, Investigative Ophthalmology and Visual Science. 2002; 43:3583-3589. These cells were cultured to test the effects of the aromatic-cationic peptides of the invention in preventing or reducing oxidative damage in the cone cells (FIG. 27). First, it was shown that tBHP affected survival of 661W cells (FIG. 27A). Different doses of tBHP were administered to the cells for 3 h. Next, it was shown that different doses of D-Arg-2′,6′-Dmt-Lys-Phe-NH2 reduced tBHP-induced 661W cell death (FIG. 27B).

[1] = test system: streptozocin diabetic rats; test: Quantitative MRI of the retina in diabetic rats; assay type: in vivo, SD rats
Description: 7, issue 1. Glycated hemoglobin and retinal thickness ex vivo (histology) will also be measured in control, diabetic groups and D-Arg-2′,6′-Dmt-Lys-Phe-NH2 treatment groups.
Diabetes is induced with intraperitoneal injection of streptozocin (60 mg/kg) within 5 minutes of its preparation in 0.01 M citrate buffer (pH 4.5) in male SD rats with body weights of approximately 200 g after overnight fast. Diabetes is verified 3 days later by the presence of plasma hyperglycemia (>300 mg/dl) and elevated urine volume (more than 60 ml/d) in nonfasted rats. Rat body weight and blood glucose levels are monitored weekly. Subtherapeutic levels of insulin (0-2 U neutral protamine Hagedorn insulin administered subcutaneously daily) is administered to maintain blood glucose levels between 450 and 550 mg/dl without urine ketones. Glycated hemoglobin is measured after 2 months of diabetes (Glyco-Tek affinity columns, kit 5351; Helena Laboratories, Beaumont, Tex.).
Nine month old diabetic rats are treated with D-Arg-2′,6′-Dmt-Lys-Phe-NH2 by injection, either intraperitoneal (IP) or subcutaneous (SC), with 1, 5, or 10 mg/kg D-Arg-2′,6′-Dmt-Lys-Phe-NH2. Injections are once/day. After 7 days of treatment, the retinas of the rats in the treatment and control groups are evaluated.
Male SD rats are examined by MRI by the methods of Berkowitz et al. Central retinal thickness at 2, 3, 4, 6, and 9 months after induction of diabetes is measured, and in age-matched non-diabetic controls. At day 7 after D-Arg-2′,6′-Dmt-Lys-Phe-NH2 treatment, rats are again evaluated via MRI according to the methods of Berkowitz et al.

[2] = test system: human retinal epithelial cells (HREC); test: Mitochondrial membrane potential of high-glucose HRECs (JC-1, flow cytometry); assay type: cell-based; conditions: 100 nM co-treatment with high glucose; 24 or 48 hours
Description: Assessment of D-Arg-2′,6′-Dmt-Lys-Phe-NH2 as a protectant against mitochondrial potential loss of HRECs treated with high-glucose was examined. To determine if a mitochondrial-mediated pathway was important in the protective effect of D-Arg-2′,6′-Dmt-Lys-Phe-NH2 against high glucose-induced cell death, ΔΨm was measured by flow cytometry. After treating the HRECs with high-glucose without D-Arg-2′,6′-Dmt-Lys-Phe-NH2 for 24 or 48 hours, a rapid loss of mitochondrial membrane potential was detected by JC-1 fluorescent probe as indicated by a significant decrease in the ratio of red to green fluorescence observed in the high glucose group.

D-Arg-2′,6′-Dmt-Lys-Phe-NH2 was tested, and the “ROS Production” value (iHTM cells; 0.01 μM pre-treatment 1 h) was 114.30 ± 3.89 %, the “ROS Production” value (iHTM cells; 0.1 μM pre-treatment 1 h) was 82.89 ± 3.70 % and the “ROS Production” value (iHTM cells; 1 μM pre-treatment 1 h) was 36.91 ± 1.47 %. For the same substance, the “Opacity degree ++++, number in group” value (STZ diabetic rats) was 1, the “Opacity degree +++, number in group” value (STZ diabetic rats) was 0 and the “Opacity degree ++, number in group” value (STZ diabetic rats) was 0. The “Opacity degree +, number in group” value (STZ diabetic rats) was 2, the “Opacity degree −, number in group” value (STZ diabetic rats) was 2 and the Percentage of opacity (STZ diabetic rats) was 60.0%. The “Percentage of severe opacity” value (STZ diabetic rats) was 20.0%, the “tBHP-induced 661W cell death” value (661W cells) was “reduced” and the Apparent diffusion coefficient ([1]; 1 mg/kg IP or SC injection) was “N to N+”. The Intraretinal water content ([1]; 1 mg/kg IP or SC injection) was “N to N+”, the Retinal thickness ([1]; 1 mg/kg IP or SC injection) was “N to N+” and the Apparent diffusion coefficient ([1]; 5 mg/kg IP or SC injection) was “N to N+”. For the same substance, the Intraretinal water content ([1]; 5 mg/kg IP or SC injection) was “N to N+”, the Retinal thickness ([1]; 5 mg/kg IP or SC injection) was “N to N+” and the Apparent diffusion coefficient ([1]; 10 mg/kg IP or SC injection) was “N to N+”. For the same substance, the Intraretinal water content ([1]; 10 mg/kg IP or SC injection) was “N to N+”, the Retinal thickness ([1]; 10 mg/kg IP or SC injection) was “N to N+” and the “Δψm (ratio of red to green JC-1 fluorescence)” value [2] was “remained virtually unchanged”.
